This passage reports T/C results from PubChem BioAssay AID296 (DTP/NCI, 2004).

This assay concerns MX-1 breast xenograft, nude mice, tumor weight T/C. Nature of the assay: NCI In Vivo Anticancer Drug Screen. Data for tumor model Human Mammary Carcinoma MX-1 Xenograft (intrarenal inoculation) in NU/NU Swiss (nude) mice. To be noted: endpoint: mean tumor weight change, higher = larger tumour. The gist of the method:
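Antitumour effect measured in vivo against vehicle controls, expressed as T/C.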
A general note: A xenograft is tissue or cells of one species grown in another, often human tumour cells in immunodeficient mice.

[1] abbreviates: dose: 300.0 mg/kg/injection, schedule: Q04DX003 (sc), vehicle: saline with Tween-80.
The mark [2] stands for this setting: dose: 600.0 mg/kg/injection, schedule: Q04DX003 (sc), vehicle: saline with Tween-80.
Setting [3] is: dose: 1200.0 mg/kg/injection, schedule: Q04DX003 (sc), vehicle: saline with Tween-80.
Setting [4] is: dose: 2400.0 mg/kg/injection, schedule: Q04DX003 (sc), vehicle: saline with Tween-80.
[5] abbreviates: dose: 50.0 mg/kg/injection, schedule: Q01DX010 (sc), vehicle: suspension in saline.
The mark [6] stands for this setting: dose: 100.0 mg/kg/injection, schedule: Q01DX010 (sc), vehicle: suspension in saline.
Where [7] appears, read: dose: 200.0 mg/kg/injection, schedule: Q01DX010 (sc), vehicle: suspension in saline.
[8] abbreviates: dose: 75.0 mg/kg/injection, schedule: Q04DX003 (sc), vehicle: saline with Tween-80.
Where [9] appears, read: dose: 150.0 mg/kg/injection, schedule: Q04DX003 (sc), vehicle: saline with Tween-80.

Structures are written as SMILES. “And” between values parts separate entries of the source, which are not always exact repeats. Identical values can stand only once. Results filed as inconclusive are left out.

On to `CC1=C(/C=C/C(C)=C/C=C/C(C)=C/C(=O)O)C(C)(C)CCC1`, for which the T/C runs as follows: (dose: 25.0 mg/kg/injection, schedule: Q01DX010 (sc), vehicle: saline with Tween-80) 86 % of control; (dose: 50.0 mg/kg/injection, schedule: Q01DX010 (sc), vehicle: saline with Tween-80) 58 % of control; (dose: 100.0 mg/kg/injection, schedule: Q01DX010 (sc), vehicle: saline with Tween-80) 52 % of control.
Consider `[I][Hg][CH2]C1COC([CH2][Hg][I])CO1` (stereo not drawn), for which the T/C under setting [1] was 86 % of control, the T/C under setting [2] was 77 % of control, the T/C under setting [3] was 115 % of control and the T/C under setting [4] is 82 % of control.
For `Nc1cc2[nH]cnc2c(=O)[nH]1`, the T/C (dose: 25.0 mg/kg/injection, schedule: Q01DX010 (sc), vehicle: saline) was 46 % of control; the T/C (dose: 50.0 mg/kg/injection, schedule: Q01DX010 (sc), vehicle: saline) is -36 % of control; the T/C under setting [5] was 9 % of control; the T/C (dose: 50.0 mg/kg/injection, schedule: Q04DX003 (sc), vehicle: suspension in saline) is 95 % of control; the T/C (dose: 100.0 mg/kg/injection, schedule: Q01DX010 (sc), vehicle: saline) was -25 % of control and -11 % of control; the T/C under setting [6] is -28 % of control. For the same molecule, the T/C by setting is: (dose: 100.0 mg/kg/injection, schedule: Q04DX003 (sc), vehicle: suspension in saline) 83 % of control and 100 % of control; (dose: 200.0 mg/kg/injection, schedule: Q01DX010 (sc), vehicle: saline) -31 % of control; under setting [7], -89 % of control; (dose: 200.0 mg/kg/injection, schedule: Q04DX003 (sc), vehicle: suspension in saline) 8 % of control and 31 % of control; (dose: 400.0 mg/kg/injection, schedule: Q04DX003 (sc), vehicle: suspension in saline) 12 % of control and 18 % of control; (dose: 800.0 mg/kg/injection, schedule: Q04DX003 (sc), vehicle: suspension in saline) 8 % of control.
For the molecule `CC1Oc2cc3c(-c4c(O)cc(O)c5c(O)c6c(cc45)OC(C)C(C)C6=O)c(O)cc(O)c3c(O)c2C(=O)C1C` (stereo not drawn), the T/C (dose: 9.38 mg/kg/injection, schedule: Q04DX003 (ip), vehicle: suspension in saline) is 16 % of control.
Take `[N-]=[N+]=CC(=O)CCC(N)C(=O)O` (stereo not drawn): the T/C is, setting by setting: (dose: 0.1 mg/kg/injection, schedule: Q01DX010 (sc), vehicle: saline) -45 % of control; (dose: 0.1 mg/kg/injection, schedule: Q02DX005 (sc), vehicle: saline) 3 % of control; (dose: 0.2 mg/kg/injection, schedule: Q01DX010 (sc), vehicle: saline) -64 % of control; (dose: 0.2 mg/kg/injection, schedule: Q02DX005 (sc), vehicle: saline) -13 % of control; (dose: 0.4 mg/kg/injection, schedule: Q01DX010 (sc), vehicle: saline) -80 % of control; (dose: 0.8 mg/kg/injection, schedule: Q02DX005 (sc), vehicle: saline) -90 % of control. Also, the T/C runs as follows: (dose: 1.6 mg/kg/injection, schedule: Q02DX005 (sc), vehicle: saline) -92 % of control; (dose: 3.12 mg/kg/injection, schedule: Q04DX003 (sc), vehicle: DMSO) 11 % of control; (dose: 3.13 mg/kg/injection, schedule: Q04DX003 (sc), vehicle: saline) 1 % of control; (dose: 3.2 mg/kg/injection, schedule: Q02DX005 (sc), vehicle: saline) -100 % of control; (dose: 6.25 mg/kg/injection, schedule: Q04DX003 (sc), vehicle: DMSO) 15 % of control; (dose: 6.25 mg/kg/injection, schedule: Q04DX003 (sc), vehicle: saline) 1 % of control. The T/C runs as follows: (dose: 12.5 mg/kg/injection, schedule: Q04DX003 (sc), vehicle: DMSO) 18 % of control; (dose: 12.5 mg/kg/injection, schedule: Q04DX003 (sc), vehicle: saline) 1 % of control; (dose: 25.0 mg/kg/injection, schedule: Q04DX003 (sc), vehicle: DMSO) 7 % of control; (dose: 25.0 mg/kg/injection, schedule: Q04DX003 (sc), vehicle: saline) -7 % of control.
Turning to `COC1/C=C/O[C@@]2(C)Oc3c(C)c(O)c4c(O)c(cc(O)c4c3C2=O)NC(=O)/C(C)=C\C=C\[C@H](C)C(O)[C@@H](C)[C@@H](O)[C@@H](C)[C@H](OC(C)=O)[C@@H]1C` (stereo partly drawn), the T/C was 153 % of control (dose: 600.0 mg/kg/injection, schedule: Q04DX003 (sc), vehicle: suspension in saline) and 150 % of control (dose: 2400.0 mg/kg/injection, schedule: Q04DX003 (sc), vehicle: suspension in saline).
For `CNC(=O)OCc1c(COC(=O)NC)c(C)n(-c2ccc(OC)cc2)c1C`, the T/C by setting is: (dose: 50.0 mg/kg/injection, schedule: Q01DX010 (sc), vehicle: Klucel (hydroxypropylcellulose) (HPC)) 41 % of control; (dose: 50.0 mg/kg/injection, schedule: Q04DX003 (sc), vehicle: Klucel (hydroxypropylcellulose) (HPC)) 110 % of control; (dose: 100.0 mg/kg/injection, schedule: Q01DX010 (sc), vehicle: Klucel (hydroxypropylcellulose) (HPC)) 9 % of control; (dose: 100.0 mg/kg/injection, schedule: Q04DX003 (sc), vehicle: Klucel (hydroxypropylcellulose) (HPC)) 46 % of control; (dose: 200.0 mg/kg/injection, schedule: Q01DX010 (sc), vehicle: Klucel (hydroxypropylcellulose) (HPC)) -52 % of control; (dose: 400.0 mg/kg/injection, schedule: Q01DX010 (sc), vehicle: Klucel (hydroxypropylcellulose) (HPC)) -61 % of control. In addition, the T/C is -100 % of control (dose: 800.0 mg/kg/injection, schedule: Q04DX003 (sc), vehicle: Klucel (hydroxypropylcellulose) (HPC)) and -100 % of control (dose: 1600.0 mg/kg/injection, schedule: Q04DX003 (sc), vehicle: Klucel (hydroxypropylcellulose) (HPC)).
As for `CN1C(=O)CC2(CCN(CCCC(=O)c3ccc(F)cc3)CC2)C1=O`, the T/C runs as follows: (dose: 37.5 mg/kg/injection, schedule: Q04DX003 (sc), vehicle: suspension in saline) 61 % of control; (dose: 150.0 mg/kg/injection, schedule: Q04DX003 (sc), vehicle: suspension in saline) 85 % of control.
As to `CN=C(N)N/N=C(\C)c1ccc2oc3ccc(/C(C)=N/NC(N)=NC)cc3c2c1`, the T/C runs as follows: under setting [8], 72 % of control; under setting [9], 86 % of control; under setting [1], 80 % of control.
With `Cc1c2cc[n+](C)cc2c(C)c2c1[nH]c1ccc(O)cc12`, the T/C runs as follows: (dose: 1.5 mg/kg/injection, schedule: Q04DX003 (sc), vehicle: water) 167 % of control; (dose: 6.0 mg/kg/injection, schedule: Q04DX003 (sc), vehicle: water) 91 % of control.
In the case of `Cc1ccccc1SSc1ccccc1C`, the T/C reads like this: (dose: 200.0 mg/kg/injection, schedule: Q01DX010 (sc), vehicle: saline with Tween-80) 88 % of control; (dose: 400.0 mg/kg/injection, schedule: Q01DX010 (sc), vehicle: saline with Tween-80) 96 % of control; (dose: 800.0 mg/kg/injection, schedule: Q01DX010 (sc), vehicle: saline with Tween-80) 91 % of control.
As to `CN(C)CCN1C(=O)c2cccc3cc(N)cc(c23)C1=O`, the T/C is, setting by setting: (dose: 16.0 mg/kg/injection, schedule: Q04DX003 (sc), vehicle: saline with Tween-80) 80 % of control; (dose: 32.0 mg/kg/injection, schedule: Q04DX003 (sc), vehicle: saline with Tween-80) 78 % of control.
Consider `C1CCC2[N-]CC3CCCCC3[N-]CC3CCCCC3[N-]CC3CCCCC3[N-]CC2C1.[Cu]` (stereo not drawn), for which the T/C runs as follows: (dose: 3.13 mg/kg/injection, schedule: Q01DX010 (sc), vehicle: Klucel (hydroxypropylcellulose) (HPC)) 47 % of control; (dose: 6.25 mg/kg/injection, schedule: Q01DX010 (sc), vehicle: Klucel (hydroxypropylcellulose) (HPC)) 193 % of control; (dose: 12.5 mg/kg/injection, schedule: Q01DX010 (sc), vehicle: Klucel (hydroxypropylcellulose) (HPC)) 178 % of control; (dose: 25.0 mg/kg/injection, schedule: Q01DX010 (sc), vehicle: Klucel (hydroxypropylcellulose) (HPC)) 113 % of control.
Turning to `CC(C#N)(C#N)N=Nc1ccc(Cl)cc1Cl`, the T/C is 94 % of control under setting [1], 94 % of control under setting [2], 98 % of control under setting [3] and 92 % of control under setting [4].
For `Oc1ccccc1C=NCCC[N-]CCCN=Cc1ccccc1O.[Co]`, the T/C was 85 % of control (dose: 25.0 mg/kg/injection, schedule: Q01DX010 (sc), vehicle: suspension in saline); 93 % of control under setting [5]; 40 % of control under setting [6]; 31 % of control under setting [7].
Consider `CCN(CC)CCC(=O)c1ccccc1`, for which the T/C reads like this: under setting [8], 94 % of control; under setting [9], 100 % of control; under setting [1], 115 % of control.
